In brackets after ≈: the same amount, converted by molar mass. Where a SMILES comes first, the peptide text is derived from it. Bridges are numbered along the chain shown (N, C = ends).
Tests used:
Assay type in all cases: cell-based
E. coli 987P = test system: E. coli 987P
Protocol: (§1) The minimum inhibitory concentration (MIC) refers to the lowest concentration that can produce a significant hindrance to bacterial growth in a drug sensitivity test by adopting a broth dilution, with certain refinements and modifications based on the previous description ([25], [26]). In short, MccJ25 was dissolved in sterilized distilled water (SDW), serial 2-fold dilutions were prepared in Mueller-Hinton broth (MHB) through a 96-well microtiter plate, and the final concentration of MccJ25 was maintained in the range of 0.003125 to 256 μg/mL. Then, 2 μL of standard and clinically relevant overnight broth cultures of bacteria were inoculated into each well at a concentration of 5 × 10^6 CFU/mL. Microtiter plates were incubated at 37°C for one full day. Two groups were set up: positive (medium with inoculum) and negative (medium only) controls. The minimum bactericidal concentration (MBC) was measured in LB medium and refers to the first drug dilution value at which the initial bacterial concentration was reduced by 99.99%. The final analysis was determined by the results of three replicated and independent experiments. To further assess and clarify the antimicrobial activity of MccJ25, the protective ability against E. coli adhesion, live/dead assay, and killing curve were performed, the detailed methods were provided in Supplementary Materials .

E. coli AZ1 = settings: source pig tissue
Protocol: as §1

E. coli BRO 134 = settings: source broiler stool
Protocol: as §1

E. coli BRO 477 = settings: source broiler stool
Protocol: as §1

E. coli CATT921A-1 = settings: source mastitis pathogens
Protocol: as §1

E. coli K99 = test system: E. coli K99
Protocol: as §1

E. coli SWI 535 = settings: source pig tissue
Protocol: as §1

E. coli WWE921A-2 = settings: source pig tissue
Protocol: as §1

Salmonella CATT LX1 = settings: source mastitis pathogens
Protocol: as §1

Salmonella CATT LX5 = settings: source mastitis pathogens
Protocol: as §1

Salmonella CATT W14 = settings: source mastitis pathogens
Protocol: as §1

E. coli BRO 528 = experiment: MIC/MBC, clinical isolate resistant to colistin sulfate, lincomycin and tilmicosin; settings: source broiler stool
Protocol: as §1

E. coli SWI 441 = experiment: as above; settings: source pig stool
Protocol: as §1

E. coli SWI 531 = experiment: as above; settings: source pig tissue
Protocol: as §1

E. coli SWI 541 = experiment: as above; settings: source pig stool
Protocol: as §1

E. coli K88 (ETEC K88) = experiment: Killing curves (bactericidal activity at different growth phases)
Protocol: Figure 1 Bactericidal activity assay of MccJ25 against E coli K88. Different concentrations of E coli K88 were cultured in LB containing different levels of MccJ25. E coli K88 cells (5 × 10^5 CFU/mL) were incubated and grown to different stages, including early-log (A), late-log (B) and stationary (C) phases. Additionally, bacteria, 5 × 10^8 CFU/mL, were cultured and grown to early-log (D), late-log (E) and stationary (F) phases. Data are means ± standard error of mean from 6 biological replicates.
A purified single colony of E. coli K88 was inoculated into 5 mL of LB. Then, culture was incubated at 37◦C with shaking at 200 rpm overnight. The next day, the culture was diluted 1:100 in fresh LB and incubated at 37◦C with shaking at 200 rpm again. To test antimicrobial activity, the bacteria were grown until they reached log phase. […] The cultures were serially diluted with sterilized saline water and plated on LB agar at different hours. The plates were incubated at 37◦C overnight to count colony. Colonies were counted to determine CFU/mL. The experiment was conducted with two replicates in three independent trials. A Live/Dead BacLight Bacterial Viability Kit 7 (Molecular Probes, Inc., Eugene) was used to test bacterial viability. […] E. coli K88 cultures were incubated at 37◦C for 2 h and then incubated in the dark at ambient temperature with SYTO 9 and propidium iodide for 15 min. Bacteria were observed using a fluorescence microscope (EVOS XL Cell Imaging System).

[1] = LB medium, 99.99% reduction, three independent experiments
[2] = broth dilution in MHB, 37°C, one day, three independent experiments
[3] = broth dilution in MHB, 37°C, three independent experiments

For `CC[C@H](C)[C@H](NC(=O)CNC(=O)[C@@H](NC(=O)[C@H](Cc1ccccc1)NC(=O)[C@H](Cc1ccc(O)cc1)NC(=O)[C@@H]1CCC(=O)NCC(=O)NCC(=O)N[C@@H](C)C(=O)NCC(=O)N[C@@H](Cc2c[nH]cn2)C(=O)N[C@@H](C(C)C)C(=O)N2CCC[C@H]2C(=O)N1)C(C)C)C(=O)NCC(=O)N[C@H](C(=O)N1CCC[C@H]1C(=O)N[C@H](C(=O)N[C@@H](CO)C(=O)N[C@@H](Cc1ccccc1)C(=O)N[C@@H](Cc1ccc(O)cc1)C(=O)NCC(=O)O)[C@@H](C)CC)[C@@H](C)O` [MccJ25, microcin J25] (GGAGHVPEYFVGIGTPISFYG-OH; lactam N-8 (inferred); C-terminus assumed), the MBC (E. coli 987P; [1]) was 0.500 µg/mL (≈ 0.237 µM), the MIC (E. coli 987P; [2]) was 0.030 µg/mL (≈ 0.0142 µM) and the MIC/MBC (E. coli 987P; ratio) was 0.060. For the same molecule, the MBC (E. coli AZ1; [1]) was 1.000 µg/mL (≈ 0.475 µM), the MIC (E. coli AZ1; [3]) was 0.500 µg/mL (≈ 0.237 µM) and the MIC/MBC (E. coli AZ1; ratio) was 0.500. It also gave an MBC (E. coli BRO 134; [1]) of 2.000 µg/mL (≈ 0.949 µM), an MIC (E. coli BRO 134; [3]) of 0.250 µg/mL (≈ 0.119 µM) and an MIC/MBC (E. coli BRO 134; ratio) of 0.125. It also gave an MBC (E. coli BRO 477; [1]) of 1.000 µg/mL (≈ 0.475 µM), an MIC (E. coli BRO 477; [3]) of 0.500 µg/mL (≈ 0.237 µM) and an MIC/MBC (E. coli BRO 477; ratio) of 0.500. It also gave an MBC (E. coli CATT921A-1; [1]) of 2.000 µg/mL (≈ 0.949 µM), an MIC (E. coli CATT921A-1; [3]) of 0.250 µg/mL (≈ 0.119 µM) and an MIC/MBC (E. coli CATT921A-1; ratio) of 0.125. The MBC (E. coli K99; [1]) was 0.250 µg/mL (≈ 0.119 µM), the MIC (E. coli K99; [2]) was 0.030 µg/mL (≈ 0.0142 µM) and the MIC/MBC (E. coli K99; ratio) was 0.120. The MBC (E. coli SWI 535; [1]) was 2.000 µg/mL (≈ 0.949 µM), the MIC (E. coli SWI 535; [3]) was 0.500 µg/mL (≈ 0.237 µM) and the MIC/MBC (E. coli SWI 535; ratio) was 0.250. The MBC (E. coli WWE921A-2; [1]) was 2.000 µg/mL (≈ 0.949 µM), the MIC (E. coli WWE921A-2; [3]) was 1.000 µg/mL (≈ 0.475 µM) and the MIC/MBC (E. coli WWE921A-2; ratio) was 0.500. The MBC (Salmonella CATT LX1; [1]) was 0.250 µg/mL (≈ 0.119 µM), the MIC (Salmonella CATT LX1; [3]) was 0.060 µg/mL (≈ 0.0285 µM) and the MIC/MBC (Salmonella CATT LX1; ratio) was 0.240. For the same molecule, the MBC (Salmonella CATT LX5; [1]) was 0.125 µg/mL (≈ 0.0593 µM), the MIC (Salmonella CATT LX5; [3]) was 0.030 µg/mL (≈ 0.0142 µM) and the MIC/MBC (Salmonella CATT LX5; ratio) was 0.240. For the same molecule, the MBC (Salmonella CATT W14; [1]) was 0.250 µg/mL (≈ 0.119 µM), the MIC (Salmonella CATT W14; [3]) was 0.060 µg/mL (≈ 0.0285 µM) and the MIC/MBC (Salmonella CATT W14; ratio) was 0.240. It also gave an MBC (E. coli BRO 528; [1]) of 2.000 µg/mL (≈ 0.949 µM), an MIC (E. coli BRO 528; [3]) of 0.500 µg/mL (≈ 0.237 µM) and an MIC/MBC (E. coli BRO 528; ratio) of 0.250. For the same molecule, the MBC (E. coli SWI 441; [1]) was 0.500 µg/mL (≈ 0.237 µM), the MIC (E. coli SWI 441; [3]) was 0.060 µg/mL (≈ 0.0285 µM) and the MIC/MBC (E. coli SWI 441; ratio) was 0.120. It also gave an MBC (E. coli SWI 531; [1]) of 0.500 µg/mL (≈ 0.237 µM), an MIC (E. coli SWI 531; [3]) of 0.060 µg/mL (≈ 0.0285 µM) and an MIC/MBC (E. coli SWI 531; ratio) of 0.120. The MBC (E. coli SWI 541; [1]) was 2.000 µg/mL (≈ 0.949 µM), the MIC (E. coli SWI 541; [3]) was 0.500 µg/mL (≈ 0.237 µM) and the MIC/MBC (E. coli SWI 541; ratio) was 0.250. For the same molecule, the “time in which all inoculants were killed” value (E. coli K88 (ETEC K88); at the indicated MICs, stationary phase) was no more than 6 h, the “time in which all inoculums were killed” value (E. coli K88 (ETEC K88); inoculum 5 × 10^5 CFU/mL, 2 × MIC, each growth period (early log, late log, stationary), LB, 37°C) was no more than 4 h and the “reduction of bacterial count” value (E. coli K88 (ETEC K88); inoculum 5 × 10^5 CFU/mL, 4 × MIC, after 2 h incubation) was 5 log. The “reduction of bacterial count” value (E. coli K88 (ETEC K88); inoculum 5 × 10^5 CFU/mL, at the indicated MICs, at 2 h, all phases) was “approximately 4 log”, the “reduction of bacterial count” value (E. coli K88 (ETEC K88); inoculum 5 × 10^8 CFU/mL at log phase, 4 × MIC, 12 h) was 8 log and the “reduction of bacterial count” value (E. coli K88 (ETEC K88); inoculum 5 × 10^8 CFU/mL, 1 × MIC, within 7 h) was 6 log.
